Common to all, as to details: Compound concentration 10 µM
For experiment [1], the target named is Delta-type opioid receptor (Homo sapiens) (UniProt P41143).
In experiment [2] the target is Histamine H1 receptor (Homo sapiens) (UniProt P35367).
Experiment [3] has as its target Sodium-dependent dopamine transporter (Homo sapiens) (UniProt Q01959).
Experiment [4] has as its target T1, Alpha-1A adrenergic receptor (Homo sapiens) (UniProt P35348).
T1 sequence (whole entry): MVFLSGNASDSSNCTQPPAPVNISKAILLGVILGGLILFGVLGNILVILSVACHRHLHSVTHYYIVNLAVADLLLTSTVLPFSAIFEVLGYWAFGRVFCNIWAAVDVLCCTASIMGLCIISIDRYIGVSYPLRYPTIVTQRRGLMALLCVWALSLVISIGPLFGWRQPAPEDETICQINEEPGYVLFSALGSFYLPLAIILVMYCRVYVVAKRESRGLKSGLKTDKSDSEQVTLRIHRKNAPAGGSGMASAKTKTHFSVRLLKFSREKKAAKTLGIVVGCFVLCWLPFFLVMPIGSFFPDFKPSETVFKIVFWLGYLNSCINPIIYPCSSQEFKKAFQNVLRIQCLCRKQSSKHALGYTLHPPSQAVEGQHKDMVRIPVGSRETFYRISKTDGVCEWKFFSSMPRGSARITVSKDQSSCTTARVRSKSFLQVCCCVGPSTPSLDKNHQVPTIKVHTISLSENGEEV

In experiment [5] the target is Beta-2 adrenergic receptor (Homo sapiens) (UniProt P07550).
The target of experiment [6] is Muscarinic acetylcholine receptor M3 (Homo sapiens) (UniProt P20309).
Experiment [7] has as its target Histamine H4 receptor (Homo sapiens) (UniProt Q9H3N8).
Experiment [8] addresses 5-hydroxytryptamine receptor 2A (Homo sapiens) (UniProt P28223).
The target in experiment [9] is T2, Muscarinic acetylcholine receptor M1 (Homo sapiens) (UniProt P11229).
T2 sequence (whole entry): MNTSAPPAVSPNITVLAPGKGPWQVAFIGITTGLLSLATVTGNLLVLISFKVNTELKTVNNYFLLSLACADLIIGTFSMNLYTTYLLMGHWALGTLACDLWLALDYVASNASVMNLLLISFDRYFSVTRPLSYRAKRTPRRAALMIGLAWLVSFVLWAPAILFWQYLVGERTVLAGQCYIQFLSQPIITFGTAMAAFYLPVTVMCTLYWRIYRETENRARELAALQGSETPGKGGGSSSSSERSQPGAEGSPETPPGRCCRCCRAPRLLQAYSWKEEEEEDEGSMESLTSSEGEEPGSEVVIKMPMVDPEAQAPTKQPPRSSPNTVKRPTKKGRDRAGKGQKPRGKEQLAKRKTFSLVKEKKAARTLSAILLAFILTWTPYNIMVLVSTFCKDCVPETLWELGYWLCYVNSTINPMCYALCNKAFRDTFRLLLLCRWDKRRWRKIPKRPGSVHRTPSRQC

Experiment [10] deals with T3, 5-hydroxytryptamine receptor 3A (Homo sapiens) (UniProt P46098).
T3 sequence (whole entry): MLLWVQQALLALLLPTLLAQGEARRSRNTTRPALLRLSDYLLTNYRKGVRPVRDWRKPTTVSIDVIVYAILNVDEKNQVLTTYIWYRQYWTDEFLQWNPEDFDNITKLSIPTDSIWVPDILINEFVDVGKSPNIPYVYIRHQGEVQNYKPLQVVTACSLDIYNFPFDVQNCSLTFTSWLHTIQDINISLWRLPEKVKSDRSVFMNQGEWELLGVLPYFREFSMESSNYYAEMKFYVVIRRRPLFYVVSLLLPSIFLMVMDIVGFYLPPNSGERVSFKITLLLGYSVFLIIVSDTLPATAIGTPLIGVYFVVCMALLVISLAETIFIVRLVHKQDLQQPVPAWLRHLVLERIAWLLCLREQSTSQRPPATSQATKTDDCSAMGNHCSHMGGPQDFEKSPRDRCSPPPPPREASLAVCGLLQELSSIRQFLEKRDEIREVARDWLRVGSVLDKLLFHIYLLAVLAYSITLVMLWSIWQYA

Experiment [11] addresses Mu-type opioid receptor (Homo sapiens) (UniProt P35372).
In experiment [12] the target is D(3) dopamine receptor (Homo sapiens) (UniProt P35462).
In experiment [13] the target is D(1B) dopamine receptor (Homo sapiens) (UniProt P21918).
For experiment [14], the target named is Sigma intracellular receptor 2 (Homo sapiens) (UniProt Q5BJF2).
Experiment [15] addresses 5-hydroxytryptamine receptor 2B (Homo sapiens) (UniProt P41595).
Experiment [16] addresses D(2) dopamine receptor (Homo sapiens) (UniProt P14416).
Experiment [17] concerns the target 5-hydroxytryptamine receptor 1B (Homo sapiens) (UniProt P28222).
Experiment [18] concerns the target 5-hydroxytryptamine receptor 1D (Homo sapiens) (UniProt P28221).
The target in experiment [19] is T4, Alpha-1D adrenergic receptor (Homo sapiens) (UniProt P25100).
T4 sequence (whole entry): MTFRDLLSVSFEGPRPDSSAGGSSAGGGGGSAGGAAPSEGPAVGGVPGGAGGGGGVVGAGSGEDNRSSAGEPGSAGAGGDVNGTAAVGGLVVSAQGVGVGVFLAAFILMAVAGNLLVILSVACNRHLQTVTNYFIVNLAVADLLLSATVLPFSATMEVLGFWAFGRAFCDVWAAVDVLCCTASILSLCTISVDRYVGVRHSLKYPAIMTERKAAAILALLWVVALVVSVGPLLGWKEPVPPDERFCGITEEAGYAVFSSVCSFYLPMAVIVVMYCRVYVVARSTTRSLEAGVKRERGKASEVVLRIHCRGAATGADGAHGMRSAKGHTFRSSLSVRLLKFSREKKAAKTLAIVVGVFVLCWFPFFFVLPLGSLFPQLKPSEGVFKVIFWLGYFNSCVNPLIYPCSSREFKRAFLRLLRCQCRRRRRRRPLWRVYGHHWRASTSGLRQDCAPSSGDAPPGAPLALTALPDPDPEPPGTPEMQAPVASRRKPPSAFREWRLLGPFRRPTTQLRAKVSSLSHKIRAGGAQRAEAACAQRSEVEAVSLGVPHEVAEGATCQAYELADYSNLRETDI

These results are taken from ChEMBL document CHEMBL5442219.

Chain of 5-hydroxytryptamine receptor 1D (Homo sapiens) (P28221 whole entry): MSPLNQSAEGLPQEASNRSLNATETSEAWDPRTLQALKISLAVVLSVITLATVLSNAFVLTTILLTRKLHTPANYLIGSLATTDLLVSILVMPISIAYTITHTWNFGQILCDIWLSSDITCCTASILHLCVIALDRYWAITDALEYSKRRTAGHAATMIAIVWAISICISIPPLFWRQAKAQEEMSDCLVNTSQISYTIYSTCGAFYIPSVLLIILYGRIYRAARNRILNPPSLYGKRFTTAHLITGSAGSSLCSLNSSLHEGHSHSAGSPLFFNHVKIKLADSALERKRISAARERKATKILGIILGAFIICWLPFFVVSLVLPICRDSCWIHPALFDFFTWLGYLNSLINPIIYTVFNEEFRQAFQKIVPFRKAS
Chain of D(3) dopamine receptor (Homo sapiens) (P35462 whole entry): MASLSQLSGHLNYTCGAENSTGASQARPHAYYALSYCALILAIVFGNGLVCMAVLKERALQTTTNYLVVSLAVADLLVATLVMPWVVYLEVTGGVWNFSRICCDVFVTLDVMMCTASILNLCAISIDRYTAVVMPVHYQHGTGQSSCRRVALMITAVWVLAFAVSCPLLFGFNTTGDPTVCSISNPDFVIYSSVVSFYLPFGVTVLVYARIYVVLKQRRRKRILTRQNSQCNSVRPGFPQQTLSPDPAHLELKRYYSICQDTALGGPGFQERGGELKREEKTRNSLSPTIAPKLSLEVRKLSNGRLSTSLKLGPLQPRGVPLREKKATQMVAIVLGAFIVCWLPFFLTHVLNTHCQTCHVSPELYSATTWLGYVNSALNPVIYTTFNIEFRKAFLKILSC
Chain of 5-hydroxytryptamine receptor 2A (Homo sapiens) (P28223 whole entry): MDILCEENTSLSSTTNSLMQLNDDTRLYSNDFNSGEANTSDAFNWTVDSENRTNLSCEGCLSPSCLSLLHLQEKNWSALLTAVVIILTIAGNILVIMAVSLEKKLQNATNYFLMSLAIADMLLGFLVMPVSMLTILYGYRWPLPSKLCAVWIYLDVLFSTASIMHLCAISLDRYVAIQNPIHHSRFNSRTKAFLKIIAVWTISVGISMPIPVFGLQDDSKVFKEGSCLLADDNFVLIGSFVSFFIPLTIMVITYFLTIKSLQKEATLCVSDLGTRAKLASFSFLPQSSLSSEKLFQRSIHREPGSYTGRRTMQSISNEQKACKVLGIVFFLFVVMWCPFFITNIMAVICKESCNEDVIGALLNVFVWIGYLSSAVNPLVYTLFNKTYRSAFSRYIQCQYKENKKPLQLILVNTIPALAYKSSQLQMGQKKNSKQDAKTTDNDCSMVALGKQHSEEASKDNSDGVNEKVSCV
Chain of Sodium-dependent dopamine transporter (Homo sapiens) (Q01959 whole entry): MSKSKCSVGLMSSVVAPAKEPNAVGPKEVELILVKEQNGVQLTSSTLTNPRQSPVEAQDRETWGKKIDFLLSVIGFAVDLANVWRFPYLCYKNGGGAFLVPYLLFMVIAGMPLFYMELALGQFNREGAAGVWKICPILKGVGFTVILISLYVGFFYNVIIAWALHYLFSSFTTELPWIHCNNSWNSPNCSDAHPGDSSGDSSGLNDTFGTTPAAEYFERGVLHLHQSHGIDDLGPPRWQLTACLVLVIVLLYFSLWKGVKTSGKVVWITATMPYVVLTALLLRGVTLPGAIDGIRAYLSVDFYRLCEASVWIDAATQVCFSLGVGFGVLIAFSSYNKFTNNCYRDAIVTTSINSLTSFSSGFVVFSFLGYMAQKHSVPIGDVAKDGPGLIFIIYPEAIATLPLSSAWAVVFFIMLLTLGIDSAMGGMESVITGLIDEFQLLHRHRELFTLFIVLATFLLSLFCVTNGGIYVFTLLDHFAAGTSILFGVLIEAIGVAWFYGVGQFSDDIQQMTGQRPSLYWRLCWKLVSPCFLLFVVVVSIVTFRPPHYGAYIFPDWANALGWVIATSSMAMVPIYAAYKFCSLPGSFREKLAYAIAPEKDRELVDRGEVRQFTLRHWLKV
Chain of Beta-2 adrenergic receptor (Homo sapiens) (P07550 whole entry, looked up): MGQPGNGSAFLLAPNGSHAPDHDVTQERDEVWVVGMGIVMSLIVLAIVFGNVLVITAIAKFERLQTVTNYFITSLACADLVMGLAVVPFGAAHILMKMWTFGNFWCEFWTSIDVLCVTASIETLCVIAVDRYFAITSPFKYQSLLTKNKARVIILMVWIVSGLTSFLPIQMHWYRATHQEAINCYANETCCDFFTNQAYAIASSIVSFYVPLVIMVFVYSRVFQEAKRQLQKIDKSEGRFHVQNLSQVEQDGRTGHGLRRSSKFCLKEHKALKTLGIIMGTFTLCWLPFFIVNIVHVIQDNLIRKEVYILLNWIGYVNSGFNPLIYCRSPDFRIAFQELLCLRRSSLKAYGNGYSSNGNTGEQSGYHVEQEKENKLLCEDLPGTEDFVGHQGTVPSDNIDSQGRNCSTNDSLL
Chain of Mu-type opioid receptor (Homo sapiens) (P35372 whole entry): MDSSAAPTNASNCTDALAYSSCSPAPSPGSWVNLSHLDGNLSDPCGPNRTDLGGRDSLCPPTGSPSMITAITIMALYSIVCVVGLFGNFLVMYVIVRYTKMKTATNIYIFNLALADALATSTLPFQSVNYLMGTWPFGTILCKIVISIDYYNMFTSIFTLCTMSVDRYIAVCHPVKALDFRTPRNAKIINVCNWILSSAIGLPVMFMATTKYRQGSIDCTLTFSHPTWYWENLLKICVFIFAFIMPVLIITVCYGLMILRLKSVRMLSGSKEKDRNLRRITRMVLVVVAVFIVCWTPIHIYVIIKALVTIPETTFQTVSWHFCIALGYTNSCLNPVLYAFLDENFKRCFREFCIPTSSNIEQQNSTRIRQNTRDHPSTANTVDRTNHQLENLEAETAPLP
Chain of Histamine H4 receptor (Homo sapiens) (Q9H3N8 whole entry): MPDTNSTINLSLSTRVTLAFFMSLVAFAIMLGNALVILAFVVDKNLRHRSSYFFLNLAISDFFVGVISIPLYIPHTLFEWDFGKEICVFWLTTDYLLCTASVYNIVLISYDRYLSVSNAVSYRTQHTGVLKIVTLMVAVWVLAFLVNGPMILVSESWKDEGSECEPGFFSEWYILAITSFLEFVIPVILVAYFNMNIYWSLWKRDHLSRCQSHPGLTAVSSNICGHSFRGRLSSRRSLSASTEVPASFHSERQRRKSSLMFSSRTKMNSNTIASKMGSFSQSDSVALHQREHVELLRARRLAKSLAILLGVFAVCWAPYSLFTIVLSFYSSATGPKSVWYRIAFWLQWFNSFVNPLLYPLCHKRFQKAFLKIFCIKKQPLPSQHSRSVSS
Chain of D(1B) dopamine receptor (Homo sapiens) (P21918 whole entry): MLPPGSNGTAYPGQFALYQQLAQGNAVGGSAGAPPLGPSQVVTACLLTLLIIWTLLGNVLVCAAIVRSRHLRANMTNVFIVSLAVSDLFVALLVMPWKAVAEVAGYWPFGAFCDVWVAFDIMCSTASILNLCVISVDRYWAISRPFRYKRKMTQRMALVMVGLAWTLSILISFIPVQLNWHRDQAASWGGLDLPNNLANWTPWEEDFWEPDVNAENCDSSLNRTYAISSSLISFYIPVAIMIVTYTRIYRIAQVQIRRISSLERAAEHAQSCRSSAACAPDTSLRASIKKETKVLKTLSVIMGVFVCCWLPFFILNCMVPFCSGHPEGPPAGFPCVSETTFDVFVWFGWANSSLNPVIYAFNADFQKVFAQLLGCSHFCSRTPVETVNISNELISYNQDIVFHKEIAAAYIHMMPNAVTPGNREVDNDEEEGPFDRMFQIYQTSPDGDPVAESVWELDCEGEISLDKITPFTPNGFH
Chain of Sigma intracellular receptor 2 (Homo sapiens) (Q5BJF2 whole entry): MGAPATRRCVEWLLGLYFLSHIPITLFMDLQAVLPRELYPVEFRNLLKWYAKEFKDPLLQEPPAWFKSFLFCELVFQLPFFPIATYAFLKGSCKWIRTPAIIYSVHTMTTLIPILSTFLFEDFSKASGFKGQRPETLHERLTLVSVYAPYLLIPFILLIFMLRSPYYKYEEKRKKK
Chain of D(2) dopamine receptor (Homo sapiens) (P14416 whole entry): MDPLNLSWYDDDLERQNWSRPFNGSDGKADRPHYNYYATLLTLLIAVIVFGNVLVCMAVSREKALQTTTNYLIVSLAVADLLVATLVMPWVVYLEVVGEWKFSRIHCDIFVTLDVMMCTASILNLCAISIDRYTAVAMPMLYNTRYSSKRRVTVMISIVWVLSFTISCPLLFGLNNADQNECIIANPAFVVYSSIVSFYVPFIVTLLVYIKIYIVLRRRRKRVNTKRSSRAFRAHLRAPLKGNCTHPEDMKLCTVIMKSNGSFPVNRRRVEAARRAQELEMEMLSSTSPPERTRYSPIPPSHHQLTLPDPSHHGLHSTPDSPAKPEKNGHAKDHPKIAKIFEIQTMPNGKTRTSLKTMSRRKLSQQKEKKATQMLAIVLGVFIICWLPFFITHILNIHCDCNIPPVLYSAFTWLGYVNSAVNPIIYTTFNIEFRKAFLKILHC
Chain of Muscarinic acetylcholine receptor M3 (Homo sapiens) (P20309 whole entry, looked up): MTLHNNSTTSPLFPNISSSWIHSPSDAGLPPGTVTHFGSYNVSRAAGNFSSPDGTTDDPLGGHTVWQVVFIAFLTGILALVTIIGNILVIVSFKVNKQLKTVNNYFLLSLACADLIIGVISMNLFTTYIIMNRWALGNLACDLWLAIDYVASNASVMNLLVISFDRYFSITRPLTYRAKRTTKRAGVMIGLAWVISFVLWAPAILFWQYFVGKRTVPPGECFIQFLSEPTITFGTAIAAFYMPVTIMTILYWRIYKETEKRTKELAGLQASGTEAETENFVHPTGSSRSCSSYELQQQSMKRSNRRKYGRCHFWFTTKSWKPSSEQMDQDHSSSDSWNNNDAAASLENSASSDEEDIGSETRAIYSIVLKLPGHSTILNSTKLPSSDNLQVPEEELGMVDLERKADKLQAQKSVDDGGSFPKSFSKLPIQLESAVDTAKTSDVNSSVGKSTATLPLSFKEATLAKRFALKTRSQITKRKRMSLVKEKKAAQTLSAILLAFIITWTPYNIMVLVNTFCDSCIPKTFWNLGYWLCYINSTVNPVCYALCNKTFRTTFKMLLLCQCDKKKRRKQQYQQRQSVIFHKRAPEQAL

On to `CN(C)S(=O)(=O)c1ccc(NC(=S)N2CCC(C(O)(c3ccccc3)c3ccccc3)CC2)cc1`, for which the inhibition in experiment [1] was 10.2%; in experiment [2] it was 6.41%; in experiment [3], 33.1%; in experiment [4], -0.67%; in [5], 71.8%; in [6], -7.46%. Also, the inhibition was -3.58% in experiment [7]; 11% in experiment [8]; 8.52% in experiment [9]; -8.86% in experiment [10]; 2.22% in experiment [11]; 21.5% in experiment [12]. Besides, the inhibition is 5.17% in [13], 95.2% in experiment [14], 23.4% in experiment [15] and 23.4% in experiment [16].
With `CCCNS(=O)(=O)Nc1ncnc(OCCOc2ncc(Br)cn2)c1-c1ccc(Br)cc1`, the inhibition is 23.6% in [1]; 11.5% in [2]; 31.1% in experiment [3]; 20.8% in experiment [6]; -0.31% in experiment [17]; 8.98% in experiment [7]. Also, the inhibition in experiment [8] is 42.8%; in experiment [11] it was 30.6%; in experiment [18] it was 9.11%; in experiment [12] it was 54.8%; in experiment [13], -1.25%; in experiment [14], 30%. Further, the inhibition in experiment [16] was 15.2%; in experiment [19], 0.01%.
On to `Cc1ccc(O)c([C@H](CCN(C(C)C)C(C)C)c2ccccc2)c1`, for which the inhibition in experiment [1] was -8.98%; in experiment [2] it was 83.1%; in experiment [3] it was 16.2%; in [4], 0.77%; in [5], 19.5%; in [6] it was 99.8%. In addition, the inhibition is 25.3% in experiment [17]; -9.16% in experiment [7]; 11.4% in experiment [8]; 99.2% in experiment [9]; -0.33% in experiment [10]; -3.49% in [11]. Also, the inhibition is 41.2% in experiment [18]; 46.2% in experiment [12]; 96.9% in experiment [14]; 32.5% in [15]; 42.6% in experiment [16]; 1.72% in experiment [19].
As to `N#Cc1c(O)nc(SCc2cccc(F)c2F)nc1C1CC1`, the inhibition in experiment [1] was 7.91%; in experiment [3], 45.1%; in experiment [5] it was 5.94%; in experiment [6], 5.27%; in [17] it was -9.63%; in experiment [7], 4.02%. Moreover, the inhibition in [8] was -3.85%; in experiment [9], -6.12%; in experiment [18] it was 38.9%; in experiment [12], 2.3%; in [13], 28.4%; in experiment [14] it was 8.9%. The inhibition in experiment [15] was 9.1%; in experiment [16] it was -6.52%.
Turning to `N#Cc1ccc(NC(=O)Nc2ccccc2Br)c2nn[nH]c12`, the inhibition in experiment [1] was 16.4%; in [2] it was 0.77%; in experiment [3], 59.8%; in experiment [5], -2.94%; in [17], 1.05%; in experiment [7] it was 25.3%. In addition, the inhibition in [8] was -5.61%; in [10] it was 4.92%; in experiment [11] it was 27.1%; in experiment [18], 1.14%; in experiment [12] it was 43.3%; in experiment [13], -7.18%. Moreover, the inhibition in [15] was 33.9%; in experiment [16], -0.4%; in experiment [19] it was -7.75%.
Regarding `CO[C@@H]1COCC[C@@H]1N[C@@H]1CC[C@@](C(=O)N2CCc3ncc(C(F)(F)F)cc3C2)(C(C)C)C1`, the inhibition was -2.34% in experiment [1]; 25.1% in [2]; 14.2% in experiment [3]; -0.61% in [4]; -6.91% in experiment [5]; 6.08% in experiment [6]. For the same compound, the inhibition in experiment [17] is -6.23%; in [7], 2.39%; in experiment [8], 4.71%; in [9] it was -6.06%; in experiment [11], 11.2%; in [12] it was 33.7%. For the same compound, the inhibition in experiment [13] was 0.19%; in experiment [14], 67.9%; in experiment [15], -6.19%; in experiment [16], 16.4%; in [19], -8.81%.
`O=C(O)C1CN(Cc2ccc(-c3nc4cc(Cc5ccccc5F)ccc4s3)c(F)c2)C1`: the inhibition is -3.98% in experiment [1]; 37.5% in [2]; 30.2% in experiment [3]; -8.12% in [4]; 66.8% in experiment [5]; -1.67% in experiment [6]. The inhibition in [7] is -0.17%; in experiment [8], 9.17%; in experiment [9], 0.63%; in experiment [10], -3.55%; in experiment [11], -9.83%; in [12] it was 91%. Besides, the inhibition in experiment [13] is -0.27%; in [14], 19.1%; in experiment [15] it was -9.46%.
As for `N[C@H](C(=O)O)c1ccc(C(=O)O)c(C(=O)O)c1`, the inhibition in experiment [1] is 13.1%; in experiment [2] it was 11.7%; in experiment [3] it was 44%; in experiment [5] it was 6.53%; in experiment [6], 4.31%; in experiment [17], -2.1%. Moreover, the inhibition in [7] is 15%; in experiment [8], 5.29%; in experiment [10], 1.09%; in experiment [11], 29.8%; in experiment [18], 19.2%; in experiment [12], 62.5%. Moreover, the inhibition in [16] is 13.7%; in experiment [19] it was 10.3%.
